# Test system: PBMCs infected with VSV-G pseudotyped HIV virus (VSV-G/pNLG1-P2A-ΔEnv)
# Experiment: cells
# Assay type: cell-based, human
# Conditions: Homo sapiens, PBMC, read-out: EC50 (HIV-TACK cell kill activity)
row,Structure (SMILES),EC50 [nM]
1,"CC(C)C#CC1(C(F)(F)F)NC(=O)Nc2cc(Cn3cnccc3=O)ccc21 (racemic) [Example 77, (S)-4-(3-methylbut-1-yn-1-yl)-7-((6-oxopyrimidin-1(6H)-yl)methyl)-4-(trifluoromethyl)-3,4-dihydroquinazolin-2(1H)-one AND (R)-4-(3-methylbut-1-yn-1-yl)-7-((6-oxopyrimidin-1(6H)-yl)methyl)-4-(trifluoromethyl)-3,4-dihydroquinazolin-2(1H)-one]",87
2,"CN1C(=O)Nc2cc(Cn3cnccc3=O)c(Cl)cc2C1(C#CC1CC1)C(F)(F)F (racemic) [Example 78, (S)-6-chloro-4-(cyclopropylethynyl)-3-methyl-7-((6-oxopyrimidin-1(6H)-yl)methyl)-4-(trifluoromethyl)-3,4-dihydroquinazolin-2(1H)-one AND (R)-6-chloro-4-(cyclopropylethynyl)-3-methyl-7-((6-oxopyrimidin-1(6H)-yl)methyl)-4-(trifluoromethyl)-3,4-dihydroquinazolin-2(1H)-one]",38
3,"CC(C)CC#CC1(C(F)(F)F)NC(=O)Nc2cc(Cn3cnccc3=O)ccc21 (racemic) [Example 79, (S)-4-(4-methylpent-1-yn-1-yl)-7-((6-oxopyrimidin-1(6H)-yl)methyl)-4-(trifluoromethyl)-3,4-dihydroquinazolin-2(1H)-one AND (R)-4-(4-methylpent-1-yn-1-yl)-7-((6-oxopyrimidin-1(6H)-yl)methyl)-4-(trifluoromethyl)-3,4-dihydroquinazolin-2(1H)-one]",230
4,"N#Cc1cc2c(cc1Cn1cnccc1=O)NC(=O)NC2(C#CC1CC1)C(F)(F)F (single isomer, unassigned) [Example 75]",221
5,"CN1C(=O)Nc2cc(Cn3ccnc(N)c3=O)c(Cl)cc2C1(C#CC1CC1)C(F)(F)F (single isomer, unassigned) [Example 76]",42
6,"O=C1Nc2cc(Cn3cnccc3=O)c(F)cc2[C@@](C#CC2CC2)(C(F)(F)F)N1 [Example 1, (S)-4-(cyclopropylethynyl)-6-fluoro-7-((6-oxopyrimidin-1(6H)-yl)methyl)-4-(trifluoromethyl)-3,4-dihydroquinazolin-2(1H)-one]",22
7,"Nc1nccn(Cc2cc3c(cc2F)[C@@](C#CC2CC2)(C(F)(F)F)NC(=O)N3)c1=O [Example 2, (S)-7-((3-amino-2-oxopyrazin-1(2H)-yl)methyl)-4-(cyclopropylethynyl)-6-fluoro-4-(trifluoromethyl)-3,4-dihydroquinazolin-2(1H)-one]",15
8,"Cc1cc(=O)n(Cc2cc3c(cc2Cl)[C@@](C#CC2CC2)(C(F)(F)F)NC(=O)N3)cn1 [Example 3, (S)-6-chloro-4-(cyclopropylethynyl)-7-((4-methyl-6-oxopyrimidin-1(6H)-yl)methyl)-4-(trifluoromethyl)-3,4-dihydroquinazolin-2(1H)-one]",26
9,"CC(F)(F)[C@@]1(C#CC2CC2)NC(=O)Nc2cc(Cn3cnccc3=O)c(F)cc21 [Example 4, (S)-4-(cyclopropylethynyl)-4-(1,1-difluoroethyl)-6-fluoro-7-((6-oxopyrimidin-1(6H)-yl)methyl)-3,4-dihydroquinazolin-2(1H)-one]",16
10,"Nc1cncn(Cc2cc3c(cc2F)[C@@](C#CC2CC2)(C(F)(F)F)NC(=O)N3)c1=O [Example 5, (S)-7-((5-amino-6-oxopyrimidin-1(6H)-yl)methyl)-4-(cyclopropylethynyl)-6-fluoro-4-(trifluoromethyl)-3,4-dihydroquinazolin-2(1H)-one]",35
11,"O=C1Nc2cc(Cn3cnc(C(F)F)cc3=O)c(F)cc2[C@@](C#CC2CC2)(C(F)(F)F)N1 [Example 6, (S)-4-(cyclopropylethynyl)-7-((4-(difluoromethyl)-6-oxopyrimidin-1(6H)-yl)methyl)-6-fluoro-4-(trifluoromethyl)-3,4-dihydroquinazolin-2(1H)-one]",38

# Reference: patent US12558357B2, “Tetrahydroquinazoline derivatives as selective cytotoxic agents” (Merck Sharp & Dohme LLC, priority 2020, dated 2026)
